In patent publication US20240360194A1, “New Peptides as Potent and Selective GIP Receptor Agonists” (Sanofi, priority 2021, published 2024):
In brackets after ≈: the same amount, converted by molar mass. Numbered stars: 1 amine (or outer) side, 2 acyl side, 3 side chain; on linkers, the order of the positions; unused ones are H or OH. Square brackets hold non-standard residues; d marks the D form. Side chains are listed from the residue outwards. Peptide text beside a SMILES is read from it. * marks the point of attachment. C18 diacid = O=C(O)CCCCCCCCCCCCCCCCC(=O)*; γGlu = O=C(O)[C@H](CCC(=O)[*:2])N[*:1]; dIva = CC[C@@](C)(N)C(=O)O; AEEA = NCCOCCOCC(=O)O; Aib = CC(C)(N)C(=O)O

Experiments:
human GIP receptor = target: T1, human GIP receptor (Homo sapiens, UniProt P48546); assay: In vitro cellular cAMP assay for GIP receptor efficacy (human adipocytes); assay type: cell-based
T1 construct: human adipocytes endogenously expressing the human GIP receptor; host or cells: human preadipocytes (Lonza) differentiated to adipocytes
T1 sequence (P48546 22-466): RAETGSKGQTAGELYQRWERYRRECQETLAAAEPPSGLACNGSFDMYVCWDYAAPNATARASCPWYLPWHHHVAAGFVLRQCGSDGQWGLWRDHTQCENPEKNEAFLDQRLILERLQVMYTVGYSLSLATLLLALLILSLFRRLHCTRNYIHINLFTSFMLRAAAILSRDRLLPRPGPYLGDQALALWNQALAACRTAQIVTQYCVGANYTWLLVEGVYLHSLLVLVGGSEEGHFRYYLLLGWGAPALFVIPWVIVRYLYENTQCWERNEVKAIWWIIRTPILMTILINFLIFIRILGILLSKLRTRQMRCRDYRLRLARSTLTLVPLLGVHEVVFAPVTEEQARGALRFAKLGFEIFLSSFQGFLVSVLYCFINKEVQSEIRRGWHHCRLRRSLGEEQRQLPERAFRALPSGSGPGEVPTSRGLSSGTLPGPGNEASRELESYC
Description: For this, one vial of human preadipocytes (˜10^6 cells; Lonza) was thawed in a T-75 cell culture dish. The cells were cultivated at 37° C., 5% CO2, 95% humidity in Preadipocyte Growth Medium with Supplement Mix from Promo Cell.
After 3 days, the cells were washed with PBS and 1.5 ml Trypsin, incubated for 4 min, then resuspended in medium, centrifugated for 10 min @ 300 rcf RT, resuspended again and distributed to four T-75 cell culture dishes. Again, the cells were cultivated at 37° C., 5% CO2, 95% humidity.
After 5 days, the cells were washed with PBS and 1.5 ml Trypsin, incubated for 4 min, then resuspended in medium, centrifugated for 10 min @ 300 rcf RT, resuspended again and sawn in T-75 dishes (2.5×10^6 cells per dish) in 15 ml Differentiation medium each.
The differentiation medium had the following composition: DMEM (Gibco), Ham's F10 (Gibco), 15 mM HEPES (Gibco), 3% FCS (PAA), 33 μM biotin (Sigma-Aldrich), 17 μM Pantothenate (Sigma-Aldrich), 0.1 μM human insulin (Sigma-Aldrich), 1 μM dexamethason (Sigma-Aldrich), 0.1 μM PPARgamma agonist (#R2408, Sigma-Aldrich), 0.6×Anti-Anti (#15240, ThermoFisher), 200 μM IBMX (AppliChem), and 0.01 μM L-thyroxine (Sigma-Aldrich).
After 6 days of differentiation, 5000 cells per well were dispensed on a 96-well plate (#CLS3694 from Corning®, Sigma-Aldrich). For measurement of cAMP generation, 25 μL of test compound was added to each well of the 96-well plate, followed by incubation for 30 min at room temperature.
The cAMP generated following test compound stimulation was determined using a kit from Cisbio Corp. based on HTRF (Homogenous Time Resolved Fluorescence). The cAMP assay was performed according to manufacturer's instructions (Cisbio).
The cAMP content of cells was determined using a kit from Cisbio Corp. based on HTRF (Homogenous Time Resolved Fluorescence).
After addition of HTRF reagents diluted in lysis buffer (kit components), the plates were incubated for 1 h, followed by measurement of the fluorescence ratio at 665/620 nm.

[1] = Solubility assessment (UHPLC-UV of supernatant, target 10 mg/ml); assay type: physicochemical; conditions: pH 7.4, Soluble amount
Description: Prior to the solubility measurement of a peptide batch, its purity was determined through UHPLC/MS.
Therefore, solutions from solid samples were prepared in a buffer system with a concentration of 10 mg/ml compound based on the previously determined % purity: • Solubility buffer system A) 100 mM phosphate buffer pH 7.4 • Solubility buffer system B) 8 mM phosphate buffer pH 7.4, 14 mg/ml propylene glycol, 5.5 mg/ml phenol • Solubility buffer system C) 100 mM phosphate buffer pH 7.4, 2.7 mg/ml m-cresol
UHPLC-UV was performed after 1 h of gentle agitation and storage at 5° C. overnight (24 h) from the supernatant, which was obtained after 15 min of centrifugation at 2500 RCF (relative centrifugal acceleration).
The different UV extinction coefficients of sample and reference peptide were calculated based on the different amino acid sequences and considered in the concentration calculation.
The analytical method used was Analytical UHPLC Method A.
Peptide samples were prepared in solubility buffer system A or C and solubility was assessed as described in Methods.

[2] = target: human GLP-1 receptor (hGLP-1R) (Homo sapiens, UniProt P43220); assay: In vitro cellular cAMP assay for GLP-1 receptor efficacy (HEK-293 cell line over-expressing receptor); assay type: cell-based; conditions: HEK-293, 0.1% BSA
Chain of human GLP-1 receptor (hGLP-1R) (P43220 24-463): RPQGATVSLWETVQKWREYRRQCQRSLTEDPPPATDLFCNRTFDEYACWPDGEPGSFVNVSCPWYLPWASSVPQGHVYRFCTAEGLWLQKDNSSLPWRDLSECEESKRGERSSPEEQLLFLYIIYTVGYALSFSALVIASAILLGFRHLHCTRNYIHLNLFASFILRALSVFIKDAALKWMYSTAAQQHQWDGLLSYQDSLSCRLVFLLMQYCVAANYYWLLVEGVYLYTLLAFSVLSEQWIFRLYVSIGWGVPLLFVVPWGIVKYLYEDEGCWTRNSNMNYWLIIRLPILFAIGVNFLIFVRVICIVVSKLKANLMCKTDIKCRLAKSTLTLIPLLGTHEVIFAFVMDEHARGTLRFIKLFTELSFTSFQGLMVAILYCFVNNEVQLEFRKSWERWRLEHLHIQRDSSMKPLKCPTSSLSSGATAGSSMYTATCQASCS

[3] = target: T2, human GIP receptor (hGIPR) (Homo sapiens, UniProt P48546); assay: Binding assay, displacement of [125I]GIP from HEK-293 membranes over-expressing GIPR (SPA); conditions: [125I]GIP displacement
T2 sequence (P48546 22-466): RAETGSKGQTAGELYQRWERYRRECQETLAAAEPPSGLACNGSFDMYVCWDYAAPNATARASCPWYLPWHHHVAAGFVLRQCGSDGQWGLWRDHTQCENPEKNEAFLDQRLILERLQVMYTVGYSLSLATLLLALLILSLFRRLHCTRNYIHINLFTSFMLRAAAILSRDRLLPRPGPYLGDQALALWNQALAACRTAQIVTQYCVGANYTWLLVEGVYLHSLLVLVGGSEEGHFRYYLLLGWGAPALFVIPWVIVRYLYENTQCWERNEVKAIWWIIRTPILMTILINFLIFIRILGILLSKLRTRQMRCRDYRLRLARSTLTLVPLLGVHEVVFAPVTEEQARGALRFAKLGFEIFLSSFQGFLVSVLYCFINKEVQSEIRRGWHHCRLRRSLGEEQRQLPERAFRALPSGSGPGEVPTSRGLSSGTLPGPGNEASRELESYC
Description: (1) Preparation of Membranes from HEK-293 Cells Over-Expressing GIPR or GLP-1R
HEK-293 cells recombinantly over-expressing GIPR or GLP-1R were grown to 50% confluency, washed with warm 1×PBS (Gibco) and detached in HEPES/EDTA-buffer (100 mM HEPES pH 7.5, 5 mM EDTA). Cells were harvested by centrifugation at 4° C. and 3000×g and the pellets were stored at −80° C. until further processing.
After thawing on ice, pellets were resuspended in HEPES/EDTA-buffer and homogenized on ice for 1 min using Ultra-Turray T25. After subsequent sonification the cell debris was removed by centrifugation at 1000×g and 4° C. Supernatants were then ultra-centrifuged at 100000×g and 4° C. under vacuum for 30 min. Pellets were resuspended in HEPES/EDTA/NaCl-buffer (20 mM HEPES, 1 mM EDTA, 150 mM NaCl; add 1 Complete Mini Protease inhibitor cocktail to 10 ml buffer) and protein content was determined via BCA-Protein assay.
(2) Measurement of Binding Activity of Test Compounds to Human GIPR or GLP-1R

With `CC[C@H](C)[C@H](NC(=O)[C@H](CCCNC(=N)N)NC(=O)[C@H](CC(=O)O)NC(=O)[C@H](CCCCNC(=O)COCCOCCNC(=O)COCCOCCNC(=O)CC[C@H](NC(=O)CCCCCCCCCCCCCCCCC(=O)O)C(=O)O)NC(=O)C(C)(C)NC(=O)[C@@H](NC(=O)[C@H](CO)NC(=O)[C@H](CC(C)C)NC(=O)[C@H](CC(=O)O)NC(=O)[C@H](CO)NC(=O)[C@@H](NC(=O)[C@@](C)(CC)NC(=O)[C@@H](NC(=O)CNC(=O)[C@H](CCC(=O)O)NC(=O)C(C)(C)NC(=O)[C@@H](N)Cc1ccc(O)cc1)[C@@H](C)O)[C@@H](C)CC)[C@@H](C)CC)C(=O)N[C@@H](Cc1c[nH]cn1)C(=O)N[C@@H](CCC(N)=O)C(=O)NC(C)(C)C(=O)N[C@@H](CCC(=O)O)C(=O)N[C@@H](Cc1ccccc1)C(=O)N[C@H](C(=O)N[C@@H](CCC(=O)O)C(=O)N[C@@H](Cc1c[nH]c2ccccc12)C(=O)N[C@@H](CC(C)C)C(=O)N[C@@H](CC(C)C)C(=O)N[C@@H](C)C(=O)N[C@@H](CCC(N)=O)C(=O)NCC(=O)N1CCC[C@H]1C(=O)N[C@@H](CO)C(=O)N[C@@H](CO)C(=O)NCC(=O)N[C@@H](C)C(=O)N1CCC[C@H]1C(=O)N1CCC[C@H]1C(=O)N1CCC[C@H]1C(=O)N[C@@H](CO)C(N)=O)[C@@H](C)CC` [SEQ ID NO: 23, H2N-Y-Aib-E-G-T-Iva-I-S-D-L-S-I-Aib-K[{AEEA}2-gGlu-C18OH]-D-R-I-H-Q-Aib-E-F-I-E-W-L-L-A-Q-G-P-S-S-G-A-P-P-P-S-NH2] (H-Y[Aib]EGT[dIva]ISDLSI[Aib]K([AEEA-AEEA-γGlu-C18 diacid])DRIHQ[Aib]EFIEWLLAQGPSSGAPPPS-NH2) as the molecule, how does the EC50 (human GIP receptor; read-out: hGIPR EC50) read?
Its EC50 is 0.2 nM.

And the Emax (human GIP receptor; read-out: hGIPR Emax)?
The Emax was 91%.

And the solubility [1]?
Its solubility is 6500 µg/mL (≈ 1320 µM).

And the EC50 [2]?
The EC50 was greater than 10 nM.

And the IC50 [3]?
The IC50 was 0.2 nM.
